Laboratory results from patent US20120129811A1, “TRICYCLIC INHIBITORS OF PRO-MATRIX METALLOPROTEINASE ACTIVATION” (priority 2010, published 2012).
Counter-ions that a name gives are not always drawn.

Key:
[1] = target: T1, proMMP9(20-445;ΔFnII) (SEQ ID NO:6) (Homo sapiens, UniProt P14780, DEL216-390); experiment: ThermoFluor binding assay with proMMP9(20-445;ΔFnII)
T1 construct: start methionine (N); made in house; host or cells: E. coli BL21(DE3) RIL
T1 sequence (P14780 with tags, fused parts or gaps DEL216-390): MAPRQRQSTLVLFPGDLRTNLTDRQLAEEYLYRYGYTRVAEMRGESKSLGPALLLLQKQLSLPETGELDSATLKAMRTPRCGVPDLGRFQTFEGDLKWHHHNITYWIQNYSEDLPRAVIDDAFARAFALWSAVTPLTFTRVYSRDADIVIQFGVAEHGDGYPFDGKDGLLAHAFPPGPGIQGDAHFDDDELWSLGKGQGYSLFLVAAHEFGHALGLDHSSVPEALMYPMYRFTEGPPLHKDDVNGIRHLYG
Protocol: (§1) The ThermoFluor® (TF) assay is a 384-well plate-based binding assay that measures thermal stability of proteins (Biomol Screen 2001, 6, 429-40; Biochemistry 2005, 44, 5258-66). The experiments were carried out using instruments available from Johnson & Johnson Pharmaceutical Research & Development, LLC. TF dye used in all experiments was […] (1,8-ANS) (Invitrogen: A-47).
(§2) Compounds were arranged in a pre-dispensed plate (Greiner Bio-one: 781280), wherein compounds were serially diluted in 100% DMSO across 11 columns within a series. Columns 12 and 24 were used as DMSO reference and contained no compound. For multiple compound concentration-response experiments, the compound aliquots (50 nL) were robotically predispensed directly into black 384-well polypropylene PCR microplates (Abgene: TF-0384/k) using a Cartesian Hummingbird liquid handler (DigiLab, Holliston, Mass.). Following compound dispense, protein and dye solutions were added to achieve the final assay volume of 3 μL. The assay solutions were overlayed with 1 μL of silicone oil (Fluka, type DC 200: 85411) to prevent evaporation.
(§3) Assay plates were robotically loaded onto a thermostatically controlled PCR-type thermal block and then heated from 40 to 90° C. at a ramp-rate of 1° C./min for all experiments. Fluorescence was measured by continuous illumination with UV light (Hamamatsu LC6) supplied via fiber optics and filtered through a band-pass filter (380-400 nm; >60D cutoff). Fluorescence emission of the entire 384-well plate was detected by measuring light intensity using a CCD camera (Sensys, Roper Scientific) filtered to detect 500±25 nm, resulting in simultaneous and independent readings of all 384 wells. A single image with 20-sec exposure time was collected at each temperature, and the sum of the pixel intensity in a given area of the assay plate was recorded vs temperature and fit to standard equations to yield the Tm (J Biomol Screen 2001, 6, 429-40).
(§4) Thermodynamic parameters necessary for fitting compound binding for each proMMP were estimated by differential scanning calorimetry (DSC) and from ThermoFluor® data. The heat capacity of unfolding for each protein was estimated from the molecular weight and from ThermoFluor® dosing data.
ThermoFluor® with proMMP9(20-445; ΔFnII (SEQ ID NO:6)
The protein sample preparations included a desalting buffer exchange step via a PD-10 gravity column (GE Healthcare). The desalting buffer exchange was performed prior to diluting the protein to the final assay concentration of 2.8 μM proMMP9(20-445;ΔFnII) (SEQ ID NO:6). The concentration of proMMP9(20-445;ΔFnII) (SEQ ID NO:6) was determined spectrophotometrically based on a calculated extinction coefficient of ε280=39880 M^−1 cm^−1, a calculated molecular weight of 28.2 kDa, and calculated pI of 5.5. ThermoFluor® reference conditions were define as follows: 80 μg/mL (2.8 μM) proMMP9(20-445;ΔFnII) (SEQ ID NO:6), 50 μM 1,8-ANS, pH 7.0 Buffer (50 mM HEPES pH 7.0, 100 mM NaCl, 0.001% Tween-20, 2.5 mM MgCl2, 300 μM CaCl2). The thermodynamic parameters for proMMP9(20-445;ΔFnII) (SEQ ID NO:6) are as follows: Tm (° C.)=72 (+/−0.1), ΔUH(Tm) (cal mol^−1)=160000(+/−5000), ΔUSTm (cal mol^−1 K^−1)=434, ΔUCp (cal mol^−1 K^−1)=2400.

[2] = target: T2, proMMP9(67-444;ΔFnII) (SEQ ID NO:5) (Homo sapiens, UniProt P14780, DEL216-390); experiment: ThermoFluor binding assay with proMMP9(67-444;ΔFnII)
T2 construct: start methionine (N); made in house; host or cells: E. coli BL21(DE3) RIL
T2 sequence (P14780 with tags, fused parts or gaps DEL216-390): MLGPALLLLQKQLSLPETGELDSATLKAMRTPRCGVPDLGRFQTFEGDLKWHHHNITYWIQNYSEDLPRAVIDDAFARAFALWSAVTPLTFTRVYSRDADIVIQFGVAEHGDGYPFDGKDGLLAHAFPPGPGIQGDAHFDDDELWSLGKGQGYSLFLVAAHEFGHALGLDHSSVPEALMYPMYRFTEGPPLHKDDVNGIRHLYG
Protocol: as §1, §2, §3, §4
ThermoFluor® with proMMP9(67-444;ΔFnM (SEQ ID NO:5)
The protein sample preparations had to include a desalting buffer exchange step via a PD-10 gravity column (GE Healthcare). The desalting buffer exchange was performed prior to diluting the protein to the final assay concentration of 3.5 μM proMMP9(67-444;ΔFnII) (SEQ ID NO:5). The concentration of proMMP9(67-444;ΔFnII) (SEQ ID NO:5) was determined spectrophotometrically based on a calculated extinction coefficient of ε280=33900 M^−1 cm^−1, a calculated molecular weight of 22.6 kDa, and calculated pI of 5.20. ThermoFluor® reference conditions were defined as follows: 80 μg/mL (3.5 μM) proMMP9(67-444;ΔFnII) (SEQ ID NO:5), 50 μM 1,8-ANS, pH 7.0 Buffer (50 mM HEPES pH 7.0, 100 mM NaCl, 0.001% Tween-20, 2.5 mM MgCl2, 300 μM CaCl2). The thermodynamic parameters for proMMP9(67-444;ΔFnII) (SEQ ID NO:5) are as follows: Tm (° C.)=63 (+/−0.1), ΔUH(Tm)(cal mol^−1)=105000(+/−5000), ΔUS(Tm) (cal mol^−1 K^−1)=450, ΔUCp (cal mol^−1 K^−1)=2000.

[3] = target: T3, full-length proMMP9(1-707) activation by catalytic MMP3 (Homo sapiens, UniProt P14780, R574P); experiment: proMMP9/MMP3 P126 Activation Assay; type: biochemical
T3 construct: made in house; host or cells: proMMP9: HEK293 (secreted); MMP3: E. coli
T3 sequence (P14780 20-707 R574P): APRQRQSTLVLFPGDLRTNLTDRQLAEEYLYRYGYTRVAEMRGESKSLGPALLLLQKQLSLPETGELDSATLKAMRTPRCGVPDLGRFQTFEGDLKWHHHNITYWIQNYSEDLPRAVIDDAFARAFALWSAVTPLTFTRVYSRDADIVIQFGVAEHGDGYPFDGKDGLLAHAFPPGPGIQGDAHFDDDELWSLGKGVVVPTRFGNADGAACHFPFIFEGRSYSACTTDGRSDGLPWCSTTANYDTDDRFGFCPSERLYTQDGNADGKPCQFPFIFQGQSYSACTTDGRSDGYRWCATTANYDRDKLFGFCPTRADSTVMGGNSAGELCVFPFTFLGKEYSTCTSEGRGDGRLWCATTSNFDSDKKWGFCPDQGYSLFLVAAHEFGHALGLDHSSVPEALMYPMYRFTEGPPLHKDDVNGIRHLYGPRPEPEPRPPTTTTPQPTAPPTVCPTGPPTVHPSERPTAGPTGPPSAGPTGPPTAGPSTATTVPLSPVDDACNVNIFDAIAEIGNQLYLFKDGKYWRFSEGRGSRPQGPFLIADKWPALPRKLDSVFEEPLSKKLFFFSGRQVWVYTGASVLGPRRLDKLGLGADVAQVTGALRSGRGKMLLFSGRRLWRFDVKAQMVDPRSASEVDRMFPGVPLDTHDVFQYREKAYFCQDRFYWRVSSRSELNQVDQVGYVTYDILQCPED
Protocol: proMMP9/MMP3 P126 Activation Assay
The reaction volume was 50 μL. […] Reactivity of residual MMP3 towards P-126 substrate was minimal under these conditions.

SMILES	Kd [1] [nM]	Kd [2] [nM]	IC50 [3] [nM]
COc1ccc(S(=O)(=O)N2CCCC2)cc1Nc1nc2c(ccc3c2ncn3C)s1 [Example 72, [2-Methoxy-5-(pyrrolidine-1-sulfonyl)-phenyl]-(6-methyl-6H-imidazo[4′,5′:3,4]benzo[2,1-d]thiazol-2-yl)-amine.HCl]	2100	1600	460
Cc1nc2ccc3sc(Nc4ccccc4OC(C)C)nc3c2s1 [Example 17, (2-Isopropoxy-phenyl)-(2-methyl-benzo[1,2-d;3,4-d′]-bisthiazol-7-yl)-amine.HCl]	> 95000	> 95000	5800
COc1ccc(S(N)(=O)=O)cc1Nc1nc2c(ccc3c2cnn3C)s1 [Example 103, 4-Methoxy-3-(6-methyl-6H-3-thia-1,6,7-triaza-as-indacen-2-ylamino)-benzenesulfonamide.TFA]	750	370	380
COc1ccccc1Nc1nc2c(ccc3ncn(C)c32)s1 [Example 132, (2-Methoxy-phenyl)-(8-methyl-8H-imidazo[4′,5′:3,4]benzo[2,1-d]thiazol-2-yl)-amine.TFA]	> 95000	26000	1400
Cc1nc2ccc3sc(Nc4cc(S(N)(=O)=O)ccc4OC(C)C)nc3c2n1CC(F)(F)F [Example 136, 4-Isopropoxy-3-[7-methyl-8-(2,2,2-trifluoro-ethyl)-8H-imidazo[4′,5′:3,4]benzo[2,1-d]thiazol-2-ylamino]-benzenesulfonamide.TFA]	770	590	1100
CCOP(=O)(OCC)c1ccc(OC)c(Nc2nc3c(ccc4c3ncn4C)s2)c1 [Example 66, [4-Methoxy-3-(6-methyl-6H-imidazo[4′,5′:3,4]benzo[2,1-d]thiazol-2-ylamino)-phenyl]-phosphonic acid diethyl ester.HCl]	5900	1700	2300
NC(=O)c1ccc(OC(F)(F)F)c(Nc2nc3c(ccc4cnccc43)s2)c1 [Example 114, 3-(Thiazolo[4,5-f]isoquinolin-2-ylamino)-4-trifluoromethoxy-benzamide.TFA]	1200	4600	~2200
COc1ccc(F)cc1Nc1nc2c(ccc3ncn(C)c32)s1 [Example 127, (5-Fluoro-2-methoxy-phenyl)-(8-methyl-8H-imidazo[4′,5′:3,4]benzo[2,1-d]thiazol 2-yl)-amine.TFA]	4300	980	270
COc1ccccc1Nc1nc2c(ccc3c2ncn3C)s1 [Example 46, (2-Methoxy-phenyl)-(6-methyl-6H-imidazo[4′,5′:3,4]benzo[2,1-d]thiazol-2-yl)-amine.HCl]	640	240	150
COc1ccc(Nc2nc3c(ccc4c3ncn4C)s2)c(OC)c1 [Example 78, (2,4-Dimethoxy-phenyl)-(6-methyl-6H-imidazo[4′,5′:3,4]-benzo[2,1-d]thiazol-2-yl)-amine.HCl]	10000	3400	4000
CCn1c(C)nc2ccc3sc(Nc4cc(S(C)(=O)=O)ccc4OC(C)C)nc3c21 [Example 143, (8-Ethyl-7-methyl-8H-imidazo[4′,5′:3,4]benzo[2,1-d]thiazol-2-yl)-(2-isopropoxy-5-methanesulfonyl-phenyl)-amine.TFA]	1200	260	160
Cc1nc2ccc3sc(Nc4cc(F)ccc4OC(C)C)nc3c2n1CC(F)(F)F [Example 141, (5-Fluoro-2-isopropoxy-phenyl)-[7-methyl-8-(2,2,2-trifluoro-ethyl)-8H-imidazo[4′,5′:3,4]benzo[2,1-d]thiazol-2-yl]-amine.TFA]	33000	7500	1300
COc1ccc(F)cc1Nc1nc2c(ccc3nc(C)n(C)c32)s1 [Example 125, (7,8-Dimethyl-8H-imidazo[4′,5′:3,4]benzo[2,1-d]thiazol-2-yl)-(5-fluoro-2-methoxy-phenyl)-amine.TFA]	3100	600	260
